Laboratory results: patent publication US10053443B2, “2-phenylbenzofuran derivatives, method for preparing the same and use of the same for treating inflammatory disease” (KOREA RESEARCH INSTITUTE OF BIOSCIENCE AND BIOTECHNOLOGY, priority 2014, dated 2018)

Key:
[1] = system: Raw 264.7 (ATCC TIB71) cells; assay: Evaluation of cell survival rate of macrophages (MTT); format: cell-based, mouse; conditions: Raw 264.7, 10 μM, 24 hours
Description: Raw 264.7 (ATCC TIB71) cells, the mouse derived macrophages', were inoculated in a 96-well plate containing DMEM (Dulbecco's modified Eagle medium; Welgene, Korea) supplemented with 10% FBS (Fetal Bovine Serum), 2 mM glutamine, penicillin (100 unit/ml), and streptomycin (100 μg/ml) at the density of 1×10^4 cells/well. The cells were cultured in 5% CO2 at 37° C. for 4 hours to attach the cells onto the plate. Next, the cells were treated with each sample at different concentrations, followed by further culture for 24 hours. To investigate the cell survival rate, 5 mg/ml of MTT (3-(4,5-dimethylthiazol-2-yl)-2,5-diphenyltetrazoliumbromide, Amresco, OH, USA) was distributed thereto (10 μl/well), followed by culture for 4 hours. Then, the supernatant was eliminated. Formazan reduced from MTT by mitochondria was dissolved in 100 μl of DMSO and then OD570 was measured. 0.2% DMSO was used for the negative control.

[2] = system: Tumor Necrosis Factor Alpha (TNF-alpha); assay: Inhibition of TNF-alpha generation in LPS-treated Raw 264.7 cells (ELISA); format: cell-based; conditions: Mus musculus, RAW264.7; Raw 264.7, LPS treated; read-out: Grades of IC50 on TNF-alpha generation
Description: Raw 264.7 cells were distributed by the same manner as described in Experimental Example <2-1>, which were treated with the samples selected due to their high NO and IL-6 suppressing effect at different concentrations. TNF-alpha included in the supernatant was measured by enzyme-linked immunosorbent assay (TNF-alpha ELISA kit, R&D Systems, MN, USA).
Particularly, 100-fold diluted supernatant was distributed in a 96-well plate on which TNF-alpha antibody was attached, followed by adhesion for 2 hours. The supernatant remaining after the adhesion was washed with a washing buffer. The detection antibody and HRP were adhered on the washed plate for 1 hour. The remaining antibody was washed. Color development was induced by using TMB substrate. The reaction was terminated with sulfuric acid solution. Then, OD450 was measured. TNF-alpha in the supernatant was quantified by using the standard curve made with the standard TNF-alpha included in the kit. TNF-alpha suppression rate was calculated by measuring the same concentration that could inhibit TNF-alpha generation up to 50% in the LPS treated group and the results are shown in Table 9.

interleukin 5 = assay: Interleukin 5 in bronchoalveolar lavage fluid of asthma mice (ELISA); format: in vivo, mouse; conditions: OVA asthma Balb/c mice, 5 or 15 mg/kg PO, FIG. 2
Description: 6 week old Balb/c female mice in the average weight of 20 g were adapted for 1 week. 2 mg of aluminum hydroxide (A8222, Sigma, St. Louis, Mo.) and 20 μg of ovalbumin (A5503, sigma, St. Louis, Mo.) were suspended in phosphate buffer (pH 7.4). Each mouse was administered with 200 μl of the phosphate buffer suspension via intraperitoneal injection for sensitization at 2 weeks intervals. The mouse was forced to inhale 1% ovalbumin (OVA) through ultrasonic atomizer for 30 minutes a day for 3 days after the first intraperitoneal injection of ovalbumin. 24 hours after the antigen administration, airway hyperreactivity was measured. 48 hours later, a lethal dose of pentobarbital (Entobar, Hanlim Pharma. Co., Ltd.) was administered to the mouse. The bronchus was opened and the alveoli were washed with 1.4 ml of saline. Then, the test samples were obtained. The normal control (NC) was not administered with ovalbumin nor inhaled. The asthma induced group (OVA) was administered with ovalbumin and inhaled to induce bronchial asthma. […]
After performing the experiment of Experimental Example <3-1> above, Th2 cytokine (interleukin 5, 13) in bronchoalveolar was measured by sandwich type enzyme immunoassay. […] The content of each cytokine was measured using the kit according to the manufacturer's instruction.

Structure (SMILES): COc1cc(CCCO)cc2cc(-c3ccc(C)cc3)oc12 [Example 4, 3-(7-methoxy-2-p-tolylbenzofuran-5-yl)propane-1-ol]
- Grades of cell survival rate (%, in 10 μM) [1]: A (A: 90<A≤100)
- IC50 [2]: 1 to 3 µM
- content of interleukin 5 in bronchoalveolar lavage fluid (interleukin 5): significantly reduced
